The values that follow come from patent publication US8835395B2, “Protein peptide hydrogels” (Kansas State University Research Foundation, priority 2010, dated 2014).

This series can be described thus: Solubility of peptide in neutral water. In kind it is physicochemical. The settings on record: neutral water without any pH adjustment.

Where a SMILES comes first, the peptide text is derived from it.

Consider `CC[C@H](C)[C@H](NC(=O)[C@H](CC(C)C)NC(=O)[C@@H](N)Cc1ccccc1)C(=O)N[C@H](C(=O)N[C@H](C(=O)N1CCC[C@H]1C(=O)N1CCC[C@@H]1C(=O)NCC(=O)N1CCC[C@H]1C(=O)NCC(=O)NCC(=O)N[C@@H](CC(=O)O)C(=O)NCC(=O)N1CCC[C@H]1C(=O)NCC(=O)NCC(=O)N[C@@H](CC(=O)O)C(=O)O)[C@@H](C)CC)C(C)C` [h5PP^De, FLIVI-PP^D-GPGGDGPGGD] (HELM PEPTIDE1{F.L.I.V.I.P.[dP].G.P.G.G.D.G.P.G.G.D}$$$$V2.0), for which the Solubility in water result is recorded as “soluble”.
